Where “and” joins values, the source holds several entries; their conditions need not be identical. Equal values may be shown once. Ends that are not written are not given here.
System: LRF (luteinizing hormone release factor) induced luteinizing hormone (LH) release
Experiment: In vitro LRF antagonist test in rat anterior pituitary cell cultures
Format: cell-based
Conditions: for LH Value: culture medium
Source text: Pentapeptides of this invention were screened for LRF antagonist activity in vitro using rat anterior pituitary cell cultures as described by Vale et. al. [Endocrinology, 91, 562 (1972)]. The inhibition of LRF (luteinizing hormone release factor) induced luteinizing hormone (LH) release into the culture medium is the endpoint in this in vitro bioassay.

[1] = compound 1×10^-6 molar, LRF 2.5×10^-10 molar
[2] = compound 1×10^-6 molar, LRF 5×10^-10 molar
[3] = compound 5×10^-6 molar, LRF 5×10^-10 molar

| Molecule | % LH Release Inhibition [1] [%] | LH Value [1] [ng/mL] | % LH Release Inhibition [2] [%] | LH Value [2] [ng/mL] | % LH Release Inhibition [3] [%] | LH Value [3] [ng/mL] | LH Value (LRF alone 2.5×10^-10 molar) | LH Value (LRF alone 2.5×10^-10 molar, listed as LRF control) [ng/mL] | LH Value (LRF alone 5×10^-10 molar) [ng/mL] |
| --- | --- | --- | --- | --- | --- | --- | --- | --- | --- |
| CCNC(=O)C1CCCN1C(=O)[C@@H](C)NC(=O)[C@H](Cc1ccc(OCc2ccccc2)cc1)NC(=O)[C@H](COCc1ccccc1)NC(=O)[C@@H](Cc1c[nH]c2ccccc12)NC(=O)OC(C)(C)C (mixture of isomers) [N^α -t-Butoxycarbonyl-D-tryptophyl-O-benzyl-L-seryl-O-benzyl-L-tyrosyl-D-alanyl-DL-proline N-ethylamide] | 84 | 10.61 | 43 | 34.51 | 90 | 14.02 |  |  |  |
| LRF Control: luteinizing hormone releasing factor, also referred to as luteinizing hormone releasing hormone, or LH-RH; the stimulus in the assay (QHWSYGLRPG; ends and bridges not checked; UniProt P01148 24-33, looked up) [reference compound] |  |  |  |  |  |  | 49.90 ng/mL and 28.52 ng/mL | 51.62 | 52.93 |
| N^α -t-Butoxycarbonyl-N^im -benzyl-L-histidyl-O-benzyl-L-seryl-O-benzyl-L-tyrosyl-D-alanyl-L-leucine methyl ester | 72 | 20.26 |  |  |  |  |  |  |  |
| N^α -t-Butoxycarbonyl-N^im -benzyl-L-histidyl-O-benzyl-L-seryl-O-benzyl-L-tyrosyl-D-alanyl-L-leucyl hydrazide | 71 | 19.35 |  |  |  |  |  |  |  |

From patent US4043994A, “New pentapeptides and methods for their production” (Parke, Davis & Company, priority 1976, dated 1977)
